Assay results as given in ChEMBL document CHEMBL5038640, “Natural Berberine-derived Azolyl Ethanols as New Structural Antibacterial Agents against Drug-Resistant Escherichia coli” (J Med Chem, 2022).

Legend:
[1] = tested on: Staphylococcus aureus; assay: Antibacterial activity against methicillin-resistant Staphylococcus aureus N315 assessed as decrease in bacterial growth incubated for 18 hrs by broth microdilution method; format: functional
[2] = tested on: Acinetobacter baumannii; assay: Antibacterial activity against Acinetobacter baumannii assessed as decrease in bacterial growth incubated for 18 hrs by broth microdilution method; format: functional
[3] = tested on: Staphylococcus aureus; assay: Antibacterial activity against Staphylococcus aureus assessed as decrease in bacterial growth incubated for 18 hrs by broth microdilution method; format: functional
[4] = tested on: Staphylococcus aureus; assay: Antibacterial activity against Staphylococcus aureus ATCC 29213 assessed as decrease in bacterial growth incubated for 18 hrs by broth microdilution method; format: functional
[5] = tested on: Staphylococcus aureus; assay: Antibacterial activity against Staphylococcus aureus ATCC 25923 assessed as decrease in bacterial growth incubated for 18 hrs by broth microdilution method; format: functional
[6] = tested on: Escherichia coli; assay: Antibacterial activity against Escherichia coli assessed as decrease in bacterial growth incubated for 18 hrs by broth microdilution method; format: functional
[7] = tested on: Klebsiella pneumoniae; assay: Antibacterial activity against Klebsiella pneumoniae assessed as decrease in bacterial growth incubated for 18 hrs by broth microdilution method; format: functional
[8] = tested on: Escherichia coli; assay: Antibacterial activity against Escherichia coli ATCC 25922 assessed as decrease in bacterial growth incubated for 18 hrs by broth microdilution method; format: functional
[9] = tested on: Pseudomonas aeruginosa; assay: Antibacterial activity against Pseudomonas aeruginosa assessed as decrease in bacterial growth incubated for 18 hrs by broth microdilution method; format: functional
[10] = Aqueous solubility of the compound in saline; format: physicochemical
[11] = tested on: Pseudomonas aeruginosa; assay: Antibacterial activity against Pseudomonas aeruginosa ATCC 27853 assessed as decrease in bacterial growth incubated for 18 hrs by broth microdilution method; format: functional
[12] = tested on: Enterococcus faecalis; assay: Antibacterial activity against Enterococcus faecalis assessed as decrease in bacterial growth incubated for 18 hrs by broth microdilution method; format: functional

SMILES | MIC [1] [µM] | MIC [2] [µM] | MIC [3] [µM] | MIC [4] [µM] | MIC [5] [µM] | MIC [6] [µM] | MIC [7] [µM] | MIC [8] [µM] | MIC [9] [µM] | solubility [10] [µM] | MIC [11] [µM] | MIC [12] [µM]
CCN(CCO)CC(O)COc1c(OC)ccc2cc3[n+](cc12)CCc1cc2c(cc1-3)OCO2.[Br-] (stereo unspecified) | 468 | 468 | 468 | 234 | 468 | 234 | 468 | 234 | 468 | 3720 | 468 | 468
COc1ccc2cc3[n+](cc2c1OCC(O)CN1CCCC1)CCc1cc2c(cc1-3)OCO2.[Br-] (stereo unspecified) | 121 | 121 | 60 | 121 | 121 | 242 | 242 | 121 | 121 | 2340 | 121 | 121
COc1ccc2cc3[n+](cc2c1OCC(O)Cn1ccnc1)CCc1cc2c(cc1-3)OCO2.[Br-] (stereo unspecified) | 61 | 61 | 124 | 124 | 124 | 61 | 61 | 124 | 124 | 1800 | 124 | 124
COc1ccc2cc3[n+](cc2c1OCC(O)CN1CCOCC1)CCc1cc2c(cc1-3)OCO2.[Br-] (stereo unspecified) | 469 | 469 | 469 | 235 | 469 | 235 | 469 | 235 | 469 | 2190 | 469 | 469
COc1ccc2cc3[n+](cc2c1OCC(O)Cn1cnc2cc([N+](=O)[O-])ccc21)CCc1cc2c(cc1-3)OCO2.[Br-] (stereo unspecified) | 103 | 103 | 103 | 51 | 26 | 51 | 103 | 103 | 103 | 895 | 26 | 51
COc1ccc2cc3[n+](cc2c1OCC(O)Cn1nnc2ccccc21)CCc1cc2c(cc1-3)OCO2.[Br-] (stereo unspecified) | 111 | 111 | 111 | 55 | 55 | 111 | 111 | 111 | 111 | 1720 | 111 | 111
COc1ccc2cc3[n+](cc2c1OCC(O)Cn1cnnc1)CCc1cc2c(cc1-3)OCO2.[Br-] (stereo unspecified) | 243 | 243 | 243 | 243 | 243 | 121 | 121 | 243 | 243 | 1100 | 121 | 243
COc1ccc2cc3[n+](cc2c1OCC(O)CN1CCNCC1)CCc1cc2c(cc1-3)OCO2.[Br-] (stereo unspecified) | 59 | 118 | 118 | 118 | 235 | 118 | 15 | 235 | 15 | 3810 | 118 | 118
COc1ccc2cc3[n+](cc2c1OCC(O)Cn1cnc2ccccc21)CCc1cc2c(cc1-3)OCO2.[Br-] (stereo unspecified) | 56 | 56 | 111 | 56 | 56 | 28 | 56 | 56 | 111 | 1720 | 56 | 56
COc1ccc2cc3[n+](cc2c1OCC(O)Cn1ccnc1-c1ccccc1)CCc1cc2c(cc1-3)OCO2.[Br-] (stereo unspecified) | 7 | 27 | 106 | 53 | 53 | 27 | 53 | 106 | 106 | 701 | 106 | 106
COc1ccc2cc3[n+](cc2c1OCC(O)CSc1nnc(C)s1)CCc1cc2c(cc1-3)OCO2.[Br-] (stereo unspecified) | 108 | 108 | 108 | 108 | 108 | 108 | 108 | 108 | 108 | 1180 | 108 | 108
COc1ccc2cc3[n+](cc2c1OC)CCc1cc2c(cc1-3)OCO2 [BERBERINE] | 689 | 1380 | 344 | 172 | 344 | 344 | 172 | 172 | 344 | 751 | 344 | 344
COc1ccc2cc3[n+](cc2c1OCC(O)Cn1cnc2cc(Br)ccc21)CCc1cc2c(cc1-3)OCO2.[Br-] (stereo unspecified) | 24 | 98 | 98 | 98 | 98 | 49 | 24 | 98 | 98 | 774 | 98 | 98
COc1ccc2cc3[n+](cc2c1OCC(O)CSc1nc2ccccc2[nH]1)CCc1cc2c(cc1-3)OCO2.[Br-] (stereo unspecified) | 53 | 26 | 105 | 53 | 53 | 53 | 53 | 105 | 105 | 783 | 53 | 53
COc1ccc2cc3[n+](cc2c1OCC(O)Cn1nnnc1C)CCc1cc2c(cc1-3)OCO2.[Br-] (stereo unspecified) | 121 | 121 | 121 | 61 | 61 | 121 | 121 | 121 | 121 | 2150 | 121 | 121
COc1ccc2cc3[n+](cc2c1OCC(O)CSc1nnnn1C)CCc1cc2c(cc1-3)OCO2.[Br-] (stereo unspecified) | 56 | 56 | 111 | 111 | 56 | 28 | 111 | 111 | 111 | 992 | 111 | 56
COc1ccc2cc3[n+](cc2c1OCC(O)Cn1cc(C=O)c2ccccc21)CCc1cc2c(cc1-3)OCO2.[Br-] (stereo unspecified) | 106 | 106 | 53 | 53 | 53 | 53 | 106 | 53 | 106 | 790 | 27 | 53
COc1ccc2cc3[n+](cc2c1OCC(O)Cn1cnc([N+](=O)[O-])c1)CCc1cc2c(cc1-3)OCO2.[Br-] (stereo unspecified) | 56 | 112 | 112 | 56 | 112 | 28 | 56 | 112 | 112 | 936 | 56 | 112
COc1ccc2cc3[n+](cc2c1OCC(O)CSc1nccn1C)CCc1cc2c(cc1-3)OCO2.[Br-] (stereo unspecified) | 56 | 56 | 112 | 112 | 56 | 28 | 112 | 112 | 112 | 791 | 112 | 56
COc1ccc2cc3[n+](cc2c1OCC(O)CN1CCCCC1)CCc1cc2c(cc1-3)OCO2.[Br-] (stereo unspecified) | 59 | 118 | 118 | 236 | 236 | 118 | 236 | 236 | 118 | 2000 | 236 | 118
COc1ccc2cc3[n+](cc2c1OCC(O)CN(CCO)CCO)CCc1cc2c(cc1-3)OCO2.[Br-] (stereo unspecified) | 57 | 114 | 14 | 28 | 227 | 114 | 227 | 114 | 114 | 4240 | 114 | 114
CCN(CC)CC(O)COc1c(OC)ccc2cc3[n+](cc12)CCc1cc2c(cc1-3)OCO2.[Br-] (stereo unspecified) | 60 | 60 | 60 | 60 | 120 | 241 | 241 | 120 | 60 | 3320 | 60 | 120
COc1ccc2cc3[n+](cc2c1OCC(O)CSc1nc[nH]n1)CCc1cc2c(cc1-3)OCO2.[Br-] (stereo unspecified) | 57 | 114 | 114 | 114 | 114 | 57 | 57 | 114 | 114 | 801 | 114 | 114
